Tests used:
NPC1L1 = NPC1L1 (Homo sapiens, UniProt Q9UHC9); details: prokaryotic screening method
[1] = in vivo, cited from earlier work
C57B16 mice = details: in vivo; cited from earlier work

Chain of NPC1L1 (Q9UHC9 22-1359): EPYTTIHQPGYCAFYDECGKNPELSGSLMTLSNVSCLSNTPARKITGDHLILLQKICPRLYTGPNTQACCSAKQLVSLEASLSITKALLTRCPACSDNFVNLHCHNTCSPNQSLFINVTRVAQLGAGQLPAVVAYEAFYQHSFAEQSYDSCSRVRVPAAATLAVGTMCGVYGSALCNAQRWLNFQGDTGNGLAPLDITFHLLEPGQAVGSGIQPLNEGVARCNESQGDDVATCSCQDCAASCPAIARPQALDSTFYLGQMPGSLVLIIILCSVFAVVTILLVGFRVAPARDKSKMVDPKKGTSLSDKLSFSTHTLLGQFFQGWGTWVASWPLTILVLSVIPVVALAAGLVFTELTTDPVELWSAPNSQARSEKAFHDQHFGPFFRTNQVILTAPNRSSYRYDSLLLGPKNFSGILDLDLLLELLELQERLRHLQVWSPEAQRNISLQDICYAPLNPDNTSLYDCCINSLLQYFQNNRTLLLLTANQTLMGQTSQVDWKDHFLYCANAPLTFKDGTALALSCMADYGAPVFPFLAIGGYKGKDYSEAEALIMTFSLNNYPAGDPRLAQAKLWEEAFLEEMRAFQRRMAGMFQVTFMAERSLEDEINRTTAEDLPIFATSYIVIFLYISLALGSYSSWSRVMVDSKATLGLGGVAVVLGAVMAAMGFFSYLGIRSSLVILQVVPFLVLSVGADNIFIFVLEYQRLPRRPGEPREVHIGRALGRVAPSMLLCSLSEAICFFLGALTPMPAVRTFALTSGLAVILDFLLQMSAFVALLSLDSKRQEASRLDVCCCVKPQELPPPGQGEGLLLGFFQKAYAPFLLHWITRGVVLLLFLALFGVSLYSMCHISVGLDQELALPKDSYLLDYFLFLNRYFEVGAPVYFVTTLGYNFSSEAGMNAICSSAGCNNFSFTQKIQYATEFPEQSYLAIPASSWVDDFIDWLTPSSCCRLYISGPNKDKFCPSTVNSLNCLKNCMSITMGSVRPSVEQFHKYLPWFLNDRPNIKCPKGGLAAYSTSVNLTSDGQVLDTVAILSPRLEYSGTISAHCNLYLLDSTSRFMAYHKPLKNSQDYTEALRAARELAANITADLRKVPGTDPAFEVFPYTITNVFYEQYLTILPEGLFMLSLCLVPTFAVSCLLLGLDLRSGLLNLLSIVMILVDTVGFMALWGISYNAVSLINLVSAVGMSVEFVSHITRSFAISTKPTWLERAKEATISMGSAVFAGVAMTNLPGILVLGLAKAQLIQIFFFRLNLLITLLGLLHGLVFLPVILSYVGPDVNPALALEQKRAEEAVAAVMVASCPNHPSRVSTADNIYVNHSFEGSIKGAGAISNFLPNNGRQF

For `CCCC(=O)C1(c2ccccc2)CCNCC1.Cl`, the NPC1L1 inhibitor identification (NPC1L1) was “inhibitor was identified”.

In the case of `O=C1[C@H](CC[C@H](O)c2ccc(F)cc2)[C@@H](c2ccc(O)cc2)N1c1ccc(F)cc1` [Zetia®, 1-(4-fluorophenyl)-(3R)-[3-(4-fluorophenyl)-3(S)-hydroxypropyl]-4(S)-(4-hydroxyphenyl)-2-azetidinone], the “extensively metabolised to the pharmacologically active ezetimibe-glucuronide” value ([1]; po) is listed as over 80%, the accumulation [1] is listed as about 2 fold and the “time at which total Zetia concentrations reach a maximum” value [1] is listed as 1 to 2 h.

For `COc1ccc2[nH]cc(CCNC(C)=O)c2c1` [melatonin], the “life of the C57B16 mouse” value (C57B16 mice) is given as 871 ± 30.5 days.

In the case of ezetimibe-glucuronide, the estimated terminal half-life ([1]; po) is given as “approximately 22 hours”.
